The values that follow are results of earlier work, collected in patent US20250002910A1, “TREATMENT OF COMPLEMENT-MEDIATED DISORDERS” (Apellis Pharmaceuticals, Inc., priority 2021, published 2025).

In this data set the test system is complement activation. The settings on record: relative to compstatin amidated at the C-terminus; published data.
Consider “Ac-ICV(1-Nal)QDWGAHRCT-COOH [AcV4(1-Nal)/H9A-OH]”, for which the Activity over compstatin is 30x more.

As for “Ac-ICV(2-IgI)QDWGAHRCT-CONH2 [Ac-V42lgl/H9A]”, the Activity over compstatin is 39x more.

In the case of “Ac-ICV(2-IgI)QDWGAHRCT-COOH [Ac-V42lgl/H9A-OH]”, the Activity over compstatin is 37x more.

For the substance “Ac-ICV(2-Nal)QDWGAHRCT-CONH2 [Ac-V4(2-Nal)/H9A]”, the Activity over compstatin is 99x more.

Regarding “Ac-ICV(2-Nal)QDWGAHRCT-COOH [AcV4(2-Nal)/H9A-OH]”, the Activity over compstatin is given as 38x more.

Take “Ac-ICV(Bpa)QDWGAHRCT-CONH2 [Ac-V4(Bpa)/H9A]”: the Activity over compstatin was 86x more.

As to “Ac-ICV(Bpa)QDWGAHRCT-COOH [Ac-V4(Bpa)/H9A-OH]”, the Activity over compstatin is 49x more.

With “Ac-ICVDhtQDWGAHRCT-COOH [Ac-V4Dht/H9A-OH]”, the Activity over compstatin was 5x more.

For Ac-ICVVQDWGHHRCT-CONH2 [Ac-compstatin], the Activity over compstatin is given as 3x more.

In the case of “Ac-ICVWQD(5fW)GAHRCT-CONH2 [Ac-V4W/W7(5fW)/H9A]”, the Activity over compstatin is 121x more.

Turning to “Ac-ICVWQDWGAHRCT-CONH2 (Ac-ICVWQDWGAHRCT-NH2; not fully specified (bridges); printed as Ac-ICVWQDWGAHRCT-CONH2; cysteine pairing not given here) [Ac-V4W/H9A]”, the Activity over compstatin is recorded as 45x more.

Consider “Ac-ICVWQDWGAHRCdT-COOH [Ac-V4W/H9A/T13dT-OH]”, for which the Activity over compstatin is on record as 55x more.

Regarding Ac-ICVYQDWGAHRCT-CONH2 [Ac-V4Y/H9A], the Activity over compstatin is 14x more.

Take “H-GICV(6fW)QD(6fW)GAHRCTN-COOH [+G/V4(6fW)/W7(6fW)H9A+N-OH]”: the Activity over compstatin is given as 126x more.
